# Literature values in patent US6488962B1, “Tablet shapes to enhance gastric retention of swellable controlled-release oral dosage forms” (DepoMed, Inc., priority 2000, dated 2002).
# Conditions: oral doses administered with or following a meal
smiles,measurement,value
Cc1c(O)cccc1C(=O)N[C@@H](CSc1ccccc1)[C@H](O)CN1C[C@H]2CCCC[C@H]2C[C@H]1C(=O)NC(C)(C)C [nelfinavir],"area under the plasma concentration-time curve, with or following a meal versus without",two to three times greater
same,"peak plasma concentration, with or following a meal versus without",two to three times greater
